Data taken from patent US5683895A, “9-deazaadenosine and its 5'-α-D-glycopyranoside isolated from the cyanobacterium Anabaena affinis strain VS-1” (priority 1995, dated 1997).
Values after ≈ are worked out from the molar mass of the structure shown.

Assays:
[1] = test system: L1210 murine leukemia cells; assay: Cytotoxicity to L1210 murine leukemia cells; type: cell-based; settings: Mus musculus
[2] = Lethal toxicity to the aquatic invertebrate Ceriodaphnia dubia (acute 48 hr and chronic 7 day); settings: in vivo

**Q.** With Nc1ncnc2c([C@@H]3O[C@H](CO)[C@@H](O)[C@H]3O)c[nH]c12 [Compound 2, 9-deazaadenosine] as the compound, how does the IC50 [1] read?
**A.** 0.002 µg/mL (≈ 0.00751 µM)

**Q.** What about the LC50 at 48 h [2] of the same compound?
**A.** 0.3 µg/mL (≈ 1.13 µM)

**Q.** And the LC50 at 168 h [2]?
**A.** 0.1 µg/mL (≈ 0.376 µM)

**Q.** What does the source list for Nc1ncnc2c([C@@H]3O[C@H](CO[C@H]4O[C@H](CO)[C@@H](O)[C@H](O)[C@H]4O)[C@@H](O)[C@H]3O)c[nH]c12 [Compound 1, 9-deazaadenosine 5'-α-D-glucopyranoside]?
**A.** IC50 [1]: 0.01 µg/mL (≈ 0.0233 µM); LC50 at 48 h [2]: 0.5 µg/mL (≈ 1.17 µM); LC50 at 168 h [2]: 0.3 µg/mL (≈ 0.7 µM)
